# Assay results published in patent US4880798A, “Cephalosporin derivatives” (Mochida Pharmaceutical Co., Ltd., priority 1986, dated 1989).
# Where two headings read alike, the source gives them in different places.
# Experiments:
# [1] = tested on: Pseudomonas aeruginosa 34; experiment: Protection against systemic bacterial infection in ICR mice (ED50); assay type: in vivo; settings: 168 h
# Procedure: (§1) Protection ability against systemic bacterial infection was determined as follows. An aqueous suspension of test bacteria was intraperitoneally injected into 10 four week old ICR mice. One hour after the infection, test compounds were intravenously administered. The number of surviving mice was counted 1 week after injection to determine the dose at which 50% of the test animals were alive (ED50 : mg/kg).
# Escherichia coli 67 = experiment: as above; assay type: in vivo; settings: iv, 168 h, Escherichia coli 67, i.p. infection, compound i.v. one hour after infection, survival 1 week
# Procedure: as §1
# Enterobacter 8 = experiment: as above; assay type: in vivo; settings: 168 h
# Procedure: as §1
# [2] = tested on: Pseudomonas aeruginosa IFO 3445; experiment: as above; assay type: in vivo; settings: IFO3445, iv, 168 h
# Procedure: as §1
# Serratia marcescens 274 = experiment: as above; assay type: in vivo; settings: 168 h
# Procedure: as §1
# [3] = tested on: Klebsiella pneumoniae IFO 3317; experiment: as above; assay type: in vivo; settings: IFO3317, iv, 168 h
# Procedure: as §1
# [4] = tested on: Pseudomonas aeruginosa 34; experiment: Antibacterial activity in vitro (MIC), agar plate dilution method; assay type: cell-based
# Procedure: (§2) Antibacterial activity in vitro was determined in accordance with the agar plate dilution method.
# (§3) A platinum loop each of test bacteria (10^6 cells/ml), cultured in Mueller Hinton broth, was inoculated on Mueller Hinton agar plates which contained test compounds at various concentrations. After cultivating at 37° C. for 20 hours, the minimum inhibitory concentration (MIC μg/ml) was determined.
# [5] = tested on: Serratia marcescens IFO 3759; experiment: as above; assay type: cell-based
# Procedure: as §2, §3
# [6] = tested on: Escherichia coli NIHJ JC 2; experiment: as above; assay type: cell-based; settings: NIHJJC2, Mueller Hinton agar, 10^6 cells/ml, 37° C., 20 hours
# Procedure: as §2, §3
# [7] = tested on: Klebsiella pneumoniae IFO 3317; experiment: as above; assay type: cell-based
# Procedure: as §2, §3
# Staphylococcus aureus 58 = experiment: Protection against systemic bacterial infection in ICR mice (ED50); assay type: in vivo; settings: iv, 168 h, Staphylococcus aureus 58 (methicillin-resistant strain), i.p. infection, compound i.v. one hour after infection, survival 1 week
# Procedure: as §1
# Staphylococcus aureus 4 = experiment: as above; assay type: in vivo; settings: iv, 168 h, Staphylococcus aureus 4 (methicillin-resistant strain), i.p. infection, compound i.v. one hour after infection, survival 1 week
# Procedure: as §1
# LD50, Probit method = settings: in vivo, iv
# Procedure: Next, LD50 of representative examples of the compounds of the present invention is shown in Table 3 wherein LD50 was determined in accordance with the Probit method.
# [8] = tested on: Staphylococcus aureus 209P; experiment: Antibacterial activity in vitro (MIC), agar plate dilution method; assay type: cell-based; settings: Mueller Hinton agar, 10^6 cells/ml, 37° C., 20 hours
# Procedure: as §2, §3
# [9] = iv, Enterobacter 8, i.p. infection, ICR mice, compound i.v. one hour after infection, survival 1 week, read-out: ED50
# [10] = Pseudomonas aeruginosa IFO 3445, i.p. infection, ICR mice, compound i.v. one hour after infection, survival 1 week, read-out: ED50
# [11] = iv, Serratia marcescens 274, i.p. infection, ICR mice, compound i.v. one hour after infection, survival 1 week, read-out: ED50
# [12] = Klebsiella pneumoniae IFO 3317, i.p. infection, ICR mice, compound i.v. one hour after infection, survival 1 week, read-out: ED50
# [13] = Pseudomonas aeruginosa 34, Mueller Hinton agar, 10^6 cells/ml, 37° C., 20 hours, read-out: MIC
# [14] = IFO3759, Serratia marcescens IFO 3759, Mueller Hinton agar, 10^6 cells/ml, 37° C., 20 hours, read-out: MIC
# [15] = IFO3317, Klebsiella pneumoniae IFO 3317, Mueller Hinton agar, 10^6 cells/ml, 37° C., 20 hours, read-out: MIC
# [16] = iv, Pseudomonas aeruginosa 34, i.p. infection, ICR mice, compound i.v. one hour after infection, survival 1 week, read-out: ED50
SMILES,ED50 (Escherichia coli 67),MIC [6],ED50 (Staphylococcus aureus 58),ED50 (Staphylococcus aureus 4),ED50 (Serratia marcescens 274; [11]),"LD50 (LD50, Probit method)",MIC [8],"MIC [5, 14]","MIC [7, 15]","ED50 [1, 16]",also measured
"CC(C)(O/N=C(\C(=O)N[C@@H]1C(=O)N2C(C(=O)[O-])=C(C[n+]3ccccc3)CS[C@H]12)c1csc(N)n1)C(=O)O [CAZ, Ceftazidime, reference compound]",2.8 mg/kg,0.2 µg/mL,,,,,,,,,"ED50 ([1]; Pseudomonas aeruginosa, 34, iv): 123 mg/kg; ED50 (Enterobacter 8; Enterobacter, 8, iv): 4.36 mg/kg; ED50 ([2]; Pseudomonas aeruginosa): 230 mg/kg; ED50 (Serratia marcescens 274; Serratia marcescens, 274, iv): 3.62 mg/kg; ED50 ([3]; Klebsiella pneumoniae): 1.73 mg/kg; MIC ([4]; Pseudomonas aeruginosa, 34, 20 h): 3.13 µg/mL; MIC ([5]; Serratia marcescens, IFO3759, 20 h): < 0.05 µg/mL; MIC ([7]; Klebsiella pneumoniae, IFO3317, 20 h): < 0.05 µg/mL"
"Cn1nnnc1SCC1=C(C(=O)O)N2C(=O)[C@@H](NC(=O)[C@H](O)c3ccccc3)[C@H]2SC1 [CMD, Cefamandole, reference compound]",,,18.9 mg/kg,5.94 mg/kg,,,,,,,
"Cc1cc(SCC2=C(C(=O)O)N3C(=O)[C@@H](NC(=O)/C(=N\OCc4c(C(=O)O)ccc(O)c4O)c4csc(N)n4)[C@H]3SC2)n2nc(C(=O)O)nc2n1 [Compound 1, (6R,7R)-7-[2-(2-amino-4-thiazolyl)-2-[Z-[(6-carboxy-2,3-dihydroxyphenyl)methyl]oxyimino]acetamido]-3-[(2-carboxy-5-methyl-s-triazolo[1,5-a]pyrimidin-7-yl)thiomethyl]-8-oxo-5-thia-1-azabicyclo[4.2.0]oct-2-ene-2-carboxylic acid]",1.59 mg/kg,0.78 µg/mL,15.9 mg/kg,,0.5 mg/kg,> 4000 mg/kg,6.25 µg/mL,0.39 µg/mL,< 0.05 µg/mL,,"ED50 (Enterobacter 8; [9]): 1.28 mg/kg; ED50 [2, 10]: 52 mg/kg; ED50 [3, 12]: 0.55 mg/kg; MIC [4, 13]: 0.2 µg/mL"
"Cc1cc(SCC2=C(C(=O)O)N3C(=O)[C@@H](NC(=O)/C(=N\OCc4cc(C(=O)O)cc(O)c4O)c4csc(N)n4)[C@H]3SC2)n2nc(C(=O)O)nc2n1 [Compound 2, (6R,7R)-7-[2-(2-amino-4-thiazolyl)-2-[Z-[(5-carboxy-2,3-dihydroxyphenyl)methyl]oxyimino]acetamido]-3-[(2-carboxy-5-methyl-s-triazolo[1,5-a]pyrimidin-7-yl)thiomethyl]-8-oxo-5-thia-1-azabicyclo[4.2.0]oct-2-ene-2-carboxylic acid]",1.1 mg/kg,0.39 µg/mL,9.65 mg/kg,,0.55 mg/kg,> 4000 mg/kg,6.25 µg/mL,0.1 µg/mL,0.05 µg/mL,,"ED50 (Enterobacter 8; [9]): 1.31 mg/kg; ED50 [2, 10]: 33.7 mg/kg; ED50 [3, 12]: 0.34 mg/kg; MIC [4, 13]: 0.2 µg/mL"
"Cc1cc(SCC2=C(C(=O)O)N3C(=O)[C@@H](NC(=O)/C(=N\OCc4cc(O)c(O)c(C(=O)O)c4)c4csc(N)n4)[C@H]3SC2)n2nc(C(=O)O)nc2n1 [Compound 3, (6R,7R)-7-[2-(2-amino-4-thiazolyl)-2-[Z-[(3-carboxy-4,5-dihydroxyphenyl)methyl]oxyimino]acetamido]-3-[(2-carboxy-5-methyl-s-triazolo[1,5-a]pyrimidin-7-yl)thiomethyl]-8-oxo-5-thia-1-azabicyclo[4.2.0]oct-2-ene-2-carboxylic acid]",,0.78 µg/mL,,2.08 mg/kg,0.72 mg/kg,> 4000 mg/kg,6.25 µg/mL,0.78 µg/mL,0.1 µg/mL,46.8 mg/kg,
"Cc1cc(SCC2=C(C(=O)O)N3C(=O)[C@@H](NC(=O)/C(=N\OCc4ccc(O)c(O)c4C(=O)O)c4csc(N)n4)[C@H]3SC2)n2nc(C(=O)O)nc2n1 [Compound 4, (6R,7R)-7-[2-(2-amino-4-thiazolyl)-2-[Z-[(2-carboxy-3,4-dihydroxyphenyl)methyl]oxyimino]acetamido]-3-[(2-carboxy-5-methyl-s-triazolo[1,5-a]pyrimidin-7-yl)thiomethyl]-8-oxo-5-thia-1-azabicyclo[4.2.0]oct-2-ene-2-carboxylic acid]",,0.39 µg/mL,,3.35 mg/kg,0.97 mg/kg,> 4000 mg/kg,3.13 µg/mL,0.39 µg/mL,0.05 µg/mL,50.6 mg/kg,
"Cc1cc(SCC2=C(C(=O)O)N3C(=O)[C@@H](NC(=O)/C(=N\OCc4ccc(C(=O)O)c(O)c4O)c4csc(N)n4)[C@H]3SC2)n2nc(C(=O)O)nc2n1 [Compound 5, (6R,7R)-7-[2-(2-amino-4-thiazolyl)-2-[Z-[(4-carboxy-2,3-dihydroxyphenyl)methyl]oxyimino]acetamido]-3-[(2-carboxy-5-methyl-s-triazolo[1,5-a]pyrimidin-7-yl)thiomethyl]-8-oxo-5-thia-1-azabicyclo[4.2.0]oct-2-ene-2-carboxylic acid]",,0.78 µg/mL,,4.21 mg/kg,0.75 mg/kg,> 4000 mg/kg,3.13 µg/mL,0.78 µg/mL,0.05 µg/mL,81.2 mg/kg,
